Laboratory results: article doi:10.1101/2024.10.07.617055v4 (biorxiv, 2026)
Read-outs that look alike come from different tables or passages of the source.

Tests used:
6H5L [1] = test: retro-aldol fluorescence assay; format: biochemical, synthetic construct; settings: 50 mM sodium phosphate, 150 mM NaCl, 7.5% DMSO, pH 8, 29 °C
6H5L [2] = settings: 6H5L_K223; 50 mM sodium phosphate, 150 mM NaCl, 7.5% DMSO, pH 8, 29 °C
6H5L_Top = test: retro-aldol fluorescence assay; format: biochemical, synthetic construct; settings: 50 mM sodium phosphate, 150 mM NaCl, 7.5% DMSO, pH 8, 29 °C
6H5L_RA2 = test: retro-aldol fluorescence assay; format: biochemical, synthetic construct; settings: 50 mM sodium phosphate, 150 mM NaCl, 7.5% DMSO, pH 8, 29 °C
6H5L_RA1 = test: retro-aldol fluorescence assay; format: biochemical, synthetic construct; settings: 50 mM sodium phosphate, 150 mM NaCl, 7.5% DMSO, pH 8, 29 °C

## COc1ccc2cc(C(O)CC(C)=O)ccc2c1 (racemic) [compound 3, 4-hydroxy-4-(6-methoxy-2-naphthyl)-2-butanone]
6H5L [1]
  Km: 371 ± 62 µM
6H5L [2]
  Km: 967 ± 211 µM
6H5L_Top
  Km: 453 ± 49.3 µM
6H5L_RA2
  Km: 1550 ± 225 µM
6H5L_RA1
  Km: 1040 ± 128 µM
